Assay results taken from PMC3075623 (2011).

Biological target: T1, ABL2 (ABL-related gene, ARG) (Homo sapiens, UniProt P42684)
T1 sequence (P42684 279-546): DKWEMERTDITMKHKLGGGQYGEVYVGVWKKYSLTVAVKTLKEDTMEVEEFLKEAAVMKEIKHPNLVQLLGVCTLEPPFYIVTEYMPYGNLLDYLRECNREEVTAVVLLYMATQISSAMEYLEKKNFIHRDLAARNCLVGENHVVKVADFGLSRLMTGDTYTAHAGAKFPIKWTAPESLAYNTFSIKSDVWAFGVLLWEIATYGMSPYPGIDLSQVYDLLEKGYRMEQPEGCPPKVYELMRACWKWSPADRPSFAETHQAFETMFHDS
Experiment: cocrystal structure
Assay type: binding

Nc1nc(Nc2ccc(S(N)(=O)=O)cc2)nn1C(=S)Nc1c(F)cccc1F [compound 2, 5-amino-3-((4-(aminosulfonyl)phenyl)amino)-N-(2,6-difluorophenyl)-1H-1,2,4-triazole-1-carbothioamide]
cocrystal structure: The ligand is bound to the protein by hydrogen bonds to the backbone carbonyls of residues Glu362 and Met364
